Active and inactive are the calls of the source. The calls are words filed in the database; no cut-off is given here.
Experiments:
[1] = biological target: T1, Gastrin/cholecystokinin type B receptor (Homo sapiens, UniProt P32239); experiment: Displacement of [125I]BH-CCK-8S from human recombinant CCK2 receptor expressed in NIH3T3 cells; format: cell-based
T1 sequence (P32239 whole entry): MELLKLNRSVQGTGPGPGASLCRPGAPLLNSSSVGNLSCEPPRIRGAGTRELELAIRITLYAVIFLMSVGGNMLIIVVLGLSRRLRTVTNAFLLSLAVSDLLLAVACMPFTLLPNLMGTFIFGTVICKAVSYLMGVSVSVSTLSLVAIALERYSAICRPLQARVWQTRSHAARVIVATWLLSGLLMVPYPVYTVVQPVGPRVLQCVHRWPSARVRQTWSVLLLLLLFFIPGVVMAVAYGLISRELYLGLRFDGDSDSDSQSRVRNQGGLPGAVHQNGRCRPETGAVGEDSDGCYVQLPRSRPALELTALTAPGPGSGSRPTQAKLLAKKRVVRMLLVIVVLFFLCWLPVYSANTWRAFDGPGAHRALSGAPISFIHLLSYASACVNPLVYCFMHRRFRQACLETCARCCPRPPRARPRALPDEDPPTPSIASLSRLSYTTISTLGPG

[2] = biological target: T2, Cholecystokinin receptor type A (Homo sapiens, UniProt P32238); experiment: Displacement of [3H]L-364718 from human recombinant CCK1 receptor expressed in CHO-K1 cells; format: cell-based
T2 sequence (P32238 whole entry): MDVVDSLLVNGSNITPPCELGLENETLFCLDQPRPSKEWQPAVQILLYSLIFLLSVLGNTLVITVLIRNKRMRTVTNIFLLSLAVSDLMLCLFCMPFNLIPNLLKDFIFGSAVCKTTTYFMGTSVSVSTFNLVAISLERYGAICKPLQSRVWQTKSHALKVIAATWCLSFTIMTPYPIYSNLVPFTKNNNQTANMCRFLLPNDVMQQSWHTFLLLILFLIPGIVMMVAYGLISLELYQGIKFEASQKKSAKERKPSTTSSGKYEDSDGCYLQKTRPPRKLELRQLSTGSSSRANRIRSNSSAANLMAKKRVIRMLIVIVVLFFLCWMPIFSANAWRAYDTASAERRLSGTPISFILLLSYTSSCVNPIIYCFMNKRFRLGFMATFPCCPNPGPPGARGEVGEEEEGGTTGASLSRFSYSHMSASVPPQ

[3] = biological target: T2, Cholecystokinin receptor type A; experiment: Binding affinity to human CCK1 receptor
[4] = biological target: T1, Gastrin/cholecystokinin type B receptor; experiment: Binding affinity at human CCK2 receptor
[5] = biological target: T3, Cholecystokinin receptor type A (Cavia porcellus) (UniProt Q63931); experiment: Agonist activity at CCK1 receptor assessed as stimulation of contraction in guinea pig gallbladder at 30 uM relative to CCK8; format: functional
T3 sequence (whole entry): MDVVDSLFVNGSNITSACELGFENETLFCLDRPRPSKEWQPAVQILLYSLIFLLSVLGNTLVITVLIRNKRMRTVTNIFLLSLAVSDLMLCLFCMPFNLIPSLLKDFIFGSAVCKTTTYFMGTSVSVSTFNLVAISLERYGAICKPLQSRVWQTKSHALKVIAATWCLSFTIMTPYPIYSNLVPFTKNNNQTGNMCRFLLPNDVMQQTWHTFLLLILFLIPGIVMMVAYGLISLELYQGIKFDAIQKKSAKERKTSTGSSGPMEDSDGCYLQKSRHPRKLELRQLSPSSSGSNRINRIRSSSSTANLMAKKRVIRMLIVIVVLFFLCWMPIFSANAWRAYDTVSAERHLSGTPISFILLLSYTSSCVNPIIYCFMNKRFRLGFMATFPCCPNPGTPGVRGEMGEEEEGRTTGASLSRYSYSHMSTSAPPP

[6] = biological target: T3, Cholecystokinin receptor type A (Cavia porcellus); experiment: (§1) Agonist activity at CCK1 receptor assessed as stimulation of contraction in guinea pig gallbladder; format: functional
[7] = biological target: T4, Cholecystokinin receptor type A (Cavia porcellus, UniProt Q63931); experiment: as §1; format: functional
T4 sequence (Q63931 whole entry): T3 sequence (whole entry)

[8] = biological target: T5, Gastrin/cholecystokinin type B receptor (Mus musculus, UniProt P56481); experiment: Binding affinity to mouse CCK2 receptor
T5 sequence (P56481 whole entry): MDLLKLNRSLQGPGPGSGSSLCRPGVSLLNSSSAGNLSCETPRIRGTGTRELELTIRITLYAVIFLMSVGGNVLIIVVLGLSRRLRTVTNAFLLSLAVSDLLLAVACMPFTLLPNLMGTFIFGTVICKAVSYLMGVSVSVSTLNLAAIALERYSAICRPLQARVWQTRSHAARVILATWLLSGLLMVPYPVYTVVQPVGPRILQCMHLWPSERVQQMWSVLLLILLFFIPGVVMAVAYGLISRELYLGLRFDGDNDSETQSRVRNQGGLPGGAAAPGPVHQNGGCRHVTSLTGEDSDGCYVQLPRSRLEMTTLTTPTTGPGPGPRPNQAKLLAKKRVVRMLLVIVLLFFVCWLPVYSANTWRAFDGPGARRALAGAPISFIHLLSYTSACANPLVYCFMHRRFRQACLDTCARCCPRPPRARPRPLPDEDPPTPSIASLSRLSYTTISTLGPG

[9] = biological target: T6, Cholecystokinin receptor type A (Mus musculus, UniProt O08786); experiment: Binding affinity to mouse CCK1 receptor
T6 sequence (O08786 whole entry): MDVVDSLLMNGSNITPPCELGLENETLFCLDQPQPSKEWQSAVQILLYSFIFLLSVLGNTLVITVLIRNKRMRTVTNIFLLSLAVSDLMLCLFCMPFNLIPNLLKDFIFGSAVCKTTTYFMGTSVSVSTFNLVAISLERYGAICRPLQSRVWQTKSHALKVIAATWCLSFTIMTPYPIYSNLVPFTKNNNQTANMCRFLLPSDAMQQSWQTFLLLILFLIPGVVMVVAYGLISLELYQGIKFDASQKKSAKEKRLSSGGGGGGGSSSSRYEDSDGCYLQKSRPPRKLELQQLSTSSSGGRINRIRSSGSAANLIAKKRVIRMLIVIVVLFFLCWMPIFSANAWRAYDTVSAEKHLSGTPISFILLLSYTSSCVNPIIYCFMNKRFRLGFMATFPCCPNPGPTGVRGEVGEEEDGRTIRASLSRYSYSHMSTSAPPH

[10] = biological target: T7, Gastrin/cholecystokinin type B receptor (Rattus norvegicus) (UniProt P30553); experiment: Antagonist activity at CCK2 receptor in immature rat stomach assessed as pentagastrin-induced acid secretion at 1 uM; format: functional, tissue-based
T7 sequence (whole entry): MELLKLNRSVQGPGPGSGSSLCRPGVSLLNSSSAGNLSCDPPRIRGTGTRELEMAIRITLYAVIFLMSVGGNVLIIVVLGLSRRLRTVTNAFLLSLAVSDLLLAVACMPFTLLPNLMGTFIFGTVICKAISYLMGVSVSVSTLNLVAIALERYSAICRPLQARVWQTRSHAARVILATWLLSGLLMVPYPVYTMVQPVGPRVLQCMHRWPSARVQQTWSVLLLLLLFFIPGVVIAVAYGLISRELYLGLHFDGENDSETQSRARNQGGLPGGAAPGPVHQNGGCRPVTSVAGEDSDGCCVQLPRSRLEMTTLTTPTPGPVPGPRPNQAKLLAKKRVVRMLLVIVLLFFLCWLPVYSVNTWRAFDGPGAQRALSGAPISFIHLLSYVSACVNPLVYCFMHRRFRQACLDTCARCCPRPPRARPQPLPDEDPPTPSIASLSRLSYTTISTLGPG

Compound	Ki [1] [nM]	Ki [2] [nM]	other results
O=C(CN1C(=O)N(CC(=O)N2CCCC2)c2ccccc2N(c2ccccc2)C1=O)Nc1cccc(C(=O)O)c1	380	> 10000	–
CC(C)(C)C(=O)CN1C(=O)N(CC(=O)Nc2cccc(C(=O)O)c2)N=C(C2CCCCC2)c2ccccc21	–	–	Ki [3]: 10000 nM; Ki [4]: 1 nM
CNc1cccc(NC(=O)N[C@@H]2N=C(c3ccccn3)c3ccccc3N(CC(=O)C(C)(C)C)C2=O)c1 [NETAZEPIDE]	–	–	Ki [3]: 31.6 nM; Ki [4]: 0.0794 nM
CNc1cccc(NC(=O)CN2C(=O)N(CC(=O)C(C)(C)C)c3ccccc3N(C3CCCCC3)C2=O)c1	9.55	2340	–
CN(C(=O)CN1C(=O)C(NC(=O)Nc2ccccc2)C(=O)N(c2ccccc2)c2ccccc21)c1ccccc1 (centres undefined)	–	–	Activity [5]: inactive; pKb [6]: 6.3
CC(C)N(C(=O)CN1C(=O)C(NC(=O)Nc2cccc(C(=O)O)c2)C(=O)N(c2ccccc2)c2ccccc21)c1ccccc1 (centres undefined)	–	–	Activity [5]: 102%; Ki [3]: 126 nM; Ki [4]: 10 nM; EC50 [7]: 39.8 nM
Cc1cccc(NC(=O)NC2C(=O)N(CC(=O)N3CCCC3)c3ccccc3N(CC(=O)N3CCCC3)C2=O)c1	–	–	IC50 [8]: 50.1 nM; IC50 [9]: 794 nM
CC(C)N(C(=O)CN1C(=O)C(NC(=O)Nc2ccccc2)C(=O)N(c2ccccc2)c2ccccc21)c1ccccc1 (centres undefined)	–	–	Activity [5]: 86%
CC(C)N(C(=O)CN1C(=O)C(CC(=O)Nc2ccccc2)C(=O)N(c2ccccc2)c2ccccc21)c1ccccc1 (centres undefined)	–	–	Activity [5]: 50%; Ki [3]: 158 nM; Ki [4]: 794 nM; EC50 [7]: 398 nM
O=C(CN1C(=O)N(CC(=O)N2CCCC2)c2ccccc2N(c2ccccc2)C1=O)Nc1ccccc1	1000	> 10000	–
Cc1cccc(NC(=O)CN2C(=O)N(CC(=O)N3CCCC3)c3ccccc3N(C3CCCCCC3)C2=O)c1	23.4	617	Activity [10]: inactive
CN(c1cccc(NC(=O)CN2C(=O)N(CC(=O)C(C)(C)C)c3ccccc3N(C3CCCCC3)C2=O)c1)c1nn[nH]n1	4.27	2090	–
CC(C)(C)C(=O)CN1C(=O)N(CC(=O)Nc2cccc(CC(=O)O)c2)C(=O)N(C2CCCCCC2)c2ccccc21	3.16	3890	–
CC(C)(C)C(=O)CN1C(=O)N(CC(=O)Nc2cccc(-c3nc(=O)o[nH]3)c2)C(=O)N(C2CCCCCC2)c2ccccc21	0.427	117	–

The next lines start with results.

Ki [1] [nM]	Ki [2] [nM]	Compound	other results
20.9	72.4	CC(C)(C)C(=O)CN1C(=O)N(CCCC(=O)Nc2cccc(-c3nc(=O)o[nH]3)c2)C(=O)N(C2CCCCC2)c2ccccc21	–
7.59	447	Cc1cccc(NC(=O)CN2C(=O)N(CC(=O)C(C)(C)C)c3ccccc3N(C3CCCCCC3)C2=O)c1	–
0.891	282	CC(C)(C)C(=O)CN1C(=O)N(CC(=O)Nc2cccc(SCC(=O)O)c2)C(=O)N(C2CCCCCC2)c2ccccc21	–
1.2	316	CC(C)(C)C(=O)CN1C(=O)N(CC(=O)Nc2cccc(-c3nc(=O)o[nH]3)c2)C(=O)N(C2CCCCC2)c2ccccc21	–
9.55	1550	Cc1nc(-c2cccc(NC(=O)CN3C(=O)N(CC(=O)C(C)(C)C)c4ccccc4N(C4CCCCC4)C3=O)c2)cs1	–
6.31	2340	CC(C)(C)C(=O)CN1C(=O)N(CC(=O)Nc2cccc(CCC(=O)O)c2)C(=O)N(C2CCCCC2)c2ccccc21	–

Reference: ChEMBL document CHEMBL1145547, “Achiral, selective CCK2 receptor antagonists based on a 1,3,5-benzotriazepine-2,4-dione template” (Bioorg Med Chem, 2008)
